# Earlier results in patent publication US11254663B2 (BRISTOL-MYERS SQUIBB COMPANY, priority 2019, dated 2022).
# What was measured:
# [1] = patients with NASH, 72-week clinical trial; cited from earlier work
# [2] = T2DM patients with NAFLD, 6-week clinical trial; cited from earlier work
structure (smiles),measurement,setting,value
"CC[C@H]1[C@@H](O)[C@@H]2[C@H](CC[C@]3(C)[C@@H]([C@H](C)CCC(=O)O)CC[C@@H]23)[C@@]2(C)CC[C@@H](O)C[C@@H]12 [OCA, obeticholic acid]","hepatic steatosis, lobular inflammation, hepatocyte ballooning, and fibrosis as assessed by histological analyses of liver biopsies",[1],"statistically significantly improved hepatic steatosis, lobular inflammation, hepatocyte ballooning, and fibrosis"
same,body weight,[2],reduced body weight
same,insulin sensitivity,[2],statistically significantly improved insulin sensitivity
